Measurements published in US12410064B2, “Preparation of soluble compounds” (EXCITON PHARMA CORP., priority 2019, dated 2025).
Values joined by “and” are separate entries in the source; they are usually repeats but may differ in a detail not shown here. Identical values can stand only once.

Key:
[1] = Solid state stability under ambient conditions, analysed by UV-Vis spectroscopy; format: physicochemical; settings: room temperature, ambient air and light, five months
Method: Stability evaluation of each compound in its solid state stored under ambient conditions was performed.

[2] = tested on: Staphylococcus aureus biofilms; assay: S. aureus antibiofilm assay (log-reduction vs no treatment control); format: cell-based
Method: Briefly, S. aureus biofilms were grown on sterile gauze at 37° C. for 72 hours (gauze was re-inoculated with S. aureus at 24 hours and 48 hours). After incubation, the gauze was rinsed with sterile water and placed onto Mueller Hinton agar (MHA) plates. The compound was dissolved in aqueous (RO water) solution at a concentration of 0.4 mg Ag/cm^2 or 10 mg Ag per 5×5 cm testing and placed on top of the gauze. The plates were incubated for 6 hours at 37° C. The remaining solution containing metal complexes was removed from the biofilm and the biofilm/gauze was neutralized in 10 mL of sodium thioglycolate. The bacteria were agitated to remove them from the gauze and the resulting bacterial suspensions were diluted and spread onto MHA plates which were incubated for 18-24 hours at 37° C. and the resulting viable bacterial colonies were enumerated. The log-reduction of S. aureus was calculated relative to the reduction achieved in the “no treatment” negative control samples. Results represent the average of triplicate data. The assay was repeated upon the aged solid state at a shelf life of 5 months (FIGS. 4A-B).

[3] = Acid-base titration curve (equivalence points); format: physicochemical; settings: FIG. 1, inflection points of the curve; listed as JN300118-1
Description: In the various embodiments, sufficient concentrations of the acid or base to transform the first oxidized metal complex into the desired second oxidized metal complex may be determined using acid-base titration. As used herein, the term “acid-base titration” refers to a method of quantitative analysis for determining the concentration of an acid or base by exactly neutralizing it with a standard solution of base or acid having known concentration. A pH indicator may be used to monitor the progress of the acid-base reaction. An acid-base titration curve may be plotted on a graph to show the changes in the pH upon addition of acid or base. As shown for example in FIG. 1, the curve falls near equivalence points (inflection points of the curve). The quantity of acid or base required to reach each equivalence point (e.g., FIG. 1, pH 11.3, 5.7) may be identified from the graph.
At each equivalence point or corresponding pH, the first oxidized metal complex may be transformed into a different second oxidized metal complex. […]

[4] = S. aureus biofilm on gauze, 0.4 mg Ag/cm^2 in RO water, 6 hours at 37° C.

## diperiodatoargentate potassium salt [JN300518-2a]
[1]
  solid state stability: bright red crystals, solid state stability,

## K5-3H0-2Ag(IO5OH)2 [JN150618-3]
[2]; [4]
  antimicrobial activity: bright red crystals, antimicrobial activity

## Sodium diperiodatoargentate Na5Ag(IO5OH)216H2O [JN091118-2, reference compound]
[2]; S. aureus biofilm as Example 2, but semi-solid formulation (about 0.083 g) dissolved into RO water (1 mL), 0.4 mg Ag/cm^2
  antimicrobial activity: Atkinson, antimicrobial activity, yield

## [Ag+].[Ag+].[Ag+].[Ag+].[Ag+].[O-][I+]([O-])([O-])([O-])([O-])[O-] [JN111018-3, Pentasilver periodate, reference compound]
[2]; [4]
  antimicrobial activity: antimicrobial activity, yield

## K4-1H1-4Ag(IO5OH)2O [JN301118-1]
[3]
  equivalence point of acid-base titration curve: 11.3 pH and 5.7 pH
